From US10775391B2, “Nervous system-specific transmembrane proteasome complex that modulates neuronal signaling through extracellular signaling via brain activity peptides” (THE JOHNS HOPKINS UNIVERSITY, priority 2015, dated 2020)
Where a SMILES comes first, the peptide text is derived from it. The star is where a group is joined. Cbz = O=C(OCc1ccccc1)*

Experiments:
NMP [1] = biological target: T1, NMP (Mus musculus, UniProt O55234+P70195+Q60692); test: Catalytic activity of purified NMP with fluorescent substrate SUC-LLVY-AMC; type: biochemical; conditions: low concentration (0.05% final), purified NMP in vitro
T1 construct: we purified NMPs from neuronal plasma membranes using a 20S purification matrix; endogenous in cells; host or cells: cultured neurons; detergent-extracted plasma membranes, isolated with the 20S proteasome purification kit (Enzo Life Sciences), assayed on beads
Protocol: In some embodiments, proteasome purification was performed as follows. Cells were treated and then immediately put on ice before purifications were performed as previously described (Methods Mol Biol 832, 423-432, 2012). Briefly, proteasomes were purified out of neuronal cytosol and detergent-extracted neuronal plasma membranes using the 20S proteasome purification kit (Enzo Life Sciences) or the 26S proteasome purification kit (UBPBio). For western blots, samples were denatured at 65° C. for 5 minutes in SDS sample buffer, resolved by SDS PAGE, transferred to nitrocellulose, and immunoblotted. For catalytic activity assays, ⅙th of the bead volume following proteasome purification was resuspended in activity assay buffer (20 mM Tris-HCl, pH8.0, 5 mM ATP, 5 mM MgCl2, 1 mM DTT). 26S proteasomal activity was assessed by the addition of 10 μM of SUC-LLVY-AMC (Enzo Life Sciences). The contribution of 20S proteasomal activity was assessed by the comparison of 26S proteasome activity to that of total proteasome activity (26S+20S), measured by the activity of samples containing SDS at a final concentration of 0.05%.

[2] = biological target: T2, Neuronal Membrane Proteasome (NMP) (Mus musculus, UniProt O55234+P70195+Q60692); test: Release of 35S-radiolabeled peptides (SNAPPs) from cortical neurons into media, liquid scintillation; type: cell-based; conditions: baseline spontaneous activity
T2 construct: we believe that the endogenous NMP is catalytically active; endogenous in cells; host or cells: primary cultured cortical neurons from C57Bl/6 mouse embryos
Protocol: Cortical neurons were cultured for 12-18 days in vitro. Neurons were membrane depolarized with 55 mM extracellular KCl by addition of prewarmed depolarization buffer (55 mM KCl, 0.2 mM CaCl2, 1 mM MgCl2, 10 mM HEPES pH7.5) or a mock buffer (55 mM NaCl, final) in fresh neuronal growth media as previously described (Nature 455: 1198-1204 (2008)). Labeling was done in Neurobasal growth media with B27 supplement and without methionine or cysteine (Life Technologies, special order). ^35S methionine-cysteine (EasyTag PerkinElmer) was incorporated at 55 mCi in the cys/met free growth medium. Where indicated, MG132 (25 mM, Cell Signaling) and ATPγS (1 mM, Sigma) was added during the radioactive labeling window, 15 minutes prior to stimulation and was kept in for the duration of the stimulation.
For any chase experiment, free radioactivity was washed out with phosphate-buffered saline and replaced with fresh neuronal growth medium. […]
Quantification of SNAPPs was done by quantifying the amount of radioactivity in each sample by liquid scintillation (Wallac 1410). […]

[3] = system: GCaMP3-transfected cultured cortical neurons; test: Calcium imaging of bicuculline-stimulated GCaMP3-transfected cortical neurons; type: cell-based, mouse; conditions: for amplitude of bicuculline-induced calcium transients: 1 μM bicuculline, biotin-epoxomicin 25 μM co-administered
Protocol: Bicuculline treatment was administered as a 1 μM stimulation in calcium imaging buffer in a perfusion setup. […] Each treatment was monitored for three minutes prior to washout. […] Cells were ensured to be healthy at the end of the imaging process by stimulating with 55 mM KCl and washing out and assessing for a proper calcium signal. Quantification was done by picking multiple regions of interests in primary and secondary dendrites across multiple coverslips over different imaging days. Data was analyzed using the Time Series Analyzer V3.0 ImageJ plugin and the ROI manager. Data were pooled for all the ROIs to generate a single N value. Brains from P0-P3 mouse pups (Cre GCaMP3; Nestin-Cre ER) were dissected and plated in Neurobasal-A with B-27 supplement for two weeks. At DIV7, 4-hydroxytamoxifen (4-HT, concentration) was added to induce GCaMP expression. Neurons were imaged in a calcium-imaging buffer (130 mM NaCl, 3 mM KCl, 2.5 mM CaCl2, 0.6 mM MgCl2, 10 mM Hepes, 10 mM glucose, 1.2 mM NaHCO3 pH 7.45). Peptides were collected, filtered, and dialyzed and then lyophilized prior to resuspension in 1 mL of MilliQ water and addition onto GCaMP-encoding neurons. […] Peptides treated with Proteinase K were spun through a 10 kDa MW cutoff filter prior to addition onto neurons in order to remove Proteinase K. Random peptide mixtures contained HIV-TAT, a polybasic peptide mixture, or a crude peptide prep.

NMP [4] = test: NMP expression by surface biotinylation, streptavidin pulldown and western blot in treated cortical neurons; type: cell-based; conditions: DIV12 mouse neurons, 1 μM for 12 hours
Protocol: Surface biotin-labeling was performed as previously described (Nat Neurosci 12, 879-887 2009). Whole mouse brains, cultured cells or whole animal tissue were obtained where indicated and each sample was labeled using Sulfo-NHS-LC-Biotin (ThermoFisher). Cultured cells were washed in pH 8.0 PBS (Gibco) with 1 mM CaCl2 and 2 mM MgCl2 (PBSCM) and treated with 1 mg/mL Sulfo-NHS-LC-Biotin dissolved in PBSCM for 20 minutes at 4° C. before the reaction was quenched for 10 minutes in 50 mM glycine in PBSCM. Intact tissue was quickly and manually chopped, following biotinylation for only 10 minutes at 4° C. in 0.5 mg/mL Sulfo-NHS-LC-Biotin prior to quenching the reaction.
Primary, human central nervous system (CNS) tissue, gestational weeks 19-21, were obtained under surgical written consent following protocols approved by the Johns Hopkins Institutional Review Board, based on its designation as biological waste. Tissue was mechanically chopped at 4° C., and immediately processed for surface biotinylation. For streptavidin pulldown experiments lysed cells were incubated with high capacity streptavidin agarose beads overnight and then washed thrice with RIPA buffer before resuspension in SDS sample buffer.
For western blots, samples were boiled for 5 minutes in SDS sample buffer, resolved by SDS PAGE, transferred to nitrocellulose, and immunoblotted. […]

CCCCCCCCCCCCOS(=O)(=O)[O-].[Na+] [SDS, sodium-dodecyl-sulfate]
catalytic activity of the NMP (NMP [1]): potently stimulated

CC(C)C[C@@H](C=O)NC(=O)[C@H](CC(C)C)NC(=O)[C@H](CC(C)C)NC(=O)OCc1ccccc1 [MG-132] (Cbz-Leu-Leu-Leu-aldehyde)
peptide release under non-stimulating conditions [2]: inhibited | amplitude of bicuculline-induced calcium transients [3]: similar | neuronal activity-induced calcium signaling ([3]; acute addition onto neurons, within seconds): suppressed

biotin-epoxomicin
amplitude of bicuculline-induced calcium transients [3]: strongly and rapidly attenuated

Aβ1-42: Aβ1-42 peptide used to treat mouse cortical neurons as an Alzheimer's disease model
expression of proteasome subunits in the streptavidin pulldown (NMP expression) (NMP [4]): significant decrease
